Consider 6 compounds from patent publication US6331555A, “Treatment of platelet derived growth factor related disorders such as cancers” (priority 1999, dated 2001).

One may read the IC50 as the concentration that gives 50% inhibition. By mortality is commonly meant the share of the test organisms that died. A low value points to a weak lethal effect.

Series [1] deals with Platelet-derived growth factor-dependent tyrosine phosphorylation. The note with it: intact cells; cited from earlier work.
The test system of another series is A431 cells. The note with it: cited from earlier work.
Series [2] relates to U1242 cells. The experiment in a line: Cytotoxicity in U1242 cells, MTT. The class given is cell-based, human. The note with it: Homo sapiens, read-out: CYTOXICITY MTT U1242 LD50; heading: CYTOXICITY MTT U1242 LD50. The method, then:
(§1) The cytotoxicity of each drug was also determined. The cells were plated as described above. Following incubation with drug, cell survival was measured by an MTT assay as described by Mossman J. Immunol. Methods 65:55-63 (1983), or by measuring the amount of LDH released (Korzeniewski and Callewaert, J. Immunol. Methods 64:313 (1983); Decker and Lohmann-Matthes, J. Immunol. Methods 115:61 (1988) .

The test system of the next series is C6 cells. The experiment in a line: C6 SRB growth assay. The class given is cell-based, rat. The note with it: Rattus norvegicus, C6; read-out: C6 SRB IC50. A general note: The SRB assay estimates cell density from bound dye.
Series [3] is described as follows: C6 glioma SC xenograft in mice. The class given is in vivo. The note with it: rat, in vivo, ip. The method, then:
(§2) Cell lines were grown in appropriate medium (see Appendix 1). Cells were harvested at or near confluency with 0.05% Trypsin-EDTA and pelleted at 450×g for 10 min. Pellets were resuspended in sterile PBS or media (without FBS) to a particular concentration and the cells were implanted into the hindflank of mice. Tumor growth was measured over 3 to 6 weeks using venier calipers. Tumor volumes were calculated as a product of length×width×height unless otherwise indicated. P values were calculated using the Students' t-test.
(§3) C6 and SKOV-3(T) cells were grown in culture, as described in "cell growth" above, and implanted into the hind flank of a female Balb/c nu/nu mouse at 3×10^6 cells (for C6 experiments), or 1×10^7 cells (for SKOV-3 experiments) in […] of PBS on Day 0. U87MG, U118MG or U373MG human glioblastoma cells (obtained from the ATCC), or A4312 were also implanted into athymic mice. […] Tumors were measured using venier calipers and tumor volume was calculated as a product of tumor length, width, and height.

For a further series, the system named is C6 glioma cells. Kind of series: C6 glioma SC xenograft in mice. The class given is in vivo. As for the experimental part: as §2, §3
The target in another series is T1, PDGF-R (U1242) (Homo sapiens, UniProt P09619).
T1 construct: U1242 (PDGF-β receptor); host or cells: U1242 MG glioma cells
The experiment in a line: U1242 kinase (PDGF-R activity). Type of series: cell-based. The method, boiled down:
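For ELISA, cells were held overnight in 0.5% serum, then treated with compound for 2 h at 37 °C in serum-free medium. Lysate phosphotyrosine was detected with polyclonal anti-phosphotyrosine antibody. In western blots, cells were stimulated with ligand for 7 min at room temperature and probed with anti-phosphotyrosine (1:3000).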

A further series can be described thus: LD10. The note with it: in vivo.
In series [4] the target is PDGFR (Homo sapiens, UniProt P09619). The experiment in a line: PDGF-stimulated receptor phosphorylation in U1242 cells, ELISA. Type of series: cell-based. Set-up: U1242 (PDGF-β receptor); host or cells: U1242 MG glioma cells. The note with it: 100 ng/ml PDGF-BB; read-out: ELISA P-TYR U1242 IC50. The method in brief: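 U1242 MG cells in 0.5% serum were pretreated with compound for 2 h at 37° C, then stimulated 5–10 min with PDGF-BB (100 ng/ml). Lysates captured on anti-PDGF receptor-coated plates; receptor phosphotyrosine detected by anti-phosphotyrosine ELISA with POD/ABTS read-out at 410 nm.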
(In general: ELISA stands for enzyme-linked immunosorbent assay.)

Series [5] has as its system U1242 cells. Kind of series: Cytotoxicity in U1242 cells, LDH. The note with it: Homo sapiens, read-out: CYTOXICITY LDH U1242 LD50; heading: CYTOXICITY LDH U1242 LD50. Type of series: cell-based. The method, then: as §1
Series [6] has as its system PDGFR. Kind of series: Receptor tyrosine kinase inhibition, PDGFR. Type of series: cell-based. The note with it: W = done in Western assay; read-out: PDGFR IC50 (W). The method, boiled down:
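Serum-starved cells treated with test compound for 2 hr at 37° C, then receptor phosphotyrosine measured by ELISA with anti-phosphotyrosine antibody and goat anti-rabbit IgG. Western blots used 7 min ligand stimulation at room temperature, vanadate-containing lysis and anti-phosphotyrosine immunodetection with ECL.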

The next series has as its system PDGF receptor. The note with it: cited from earlier work.
Another series deals with PDGF α-receptor. The note with it: high concentrations; cited from earlier work.
The subject of a further series is PDGF β-receptor. The note with it: cited from earlier work.
Where [7] appears, read: W = done in Western assay, read-out: U1242 KINASE IC50 (W).

“And” between values parts separate entries of the source, which are not always exact repeats. Equal entries are not always repeated. Where two headings read alike, the source gives them in different places.

T1 sequence (P09619 33-1106): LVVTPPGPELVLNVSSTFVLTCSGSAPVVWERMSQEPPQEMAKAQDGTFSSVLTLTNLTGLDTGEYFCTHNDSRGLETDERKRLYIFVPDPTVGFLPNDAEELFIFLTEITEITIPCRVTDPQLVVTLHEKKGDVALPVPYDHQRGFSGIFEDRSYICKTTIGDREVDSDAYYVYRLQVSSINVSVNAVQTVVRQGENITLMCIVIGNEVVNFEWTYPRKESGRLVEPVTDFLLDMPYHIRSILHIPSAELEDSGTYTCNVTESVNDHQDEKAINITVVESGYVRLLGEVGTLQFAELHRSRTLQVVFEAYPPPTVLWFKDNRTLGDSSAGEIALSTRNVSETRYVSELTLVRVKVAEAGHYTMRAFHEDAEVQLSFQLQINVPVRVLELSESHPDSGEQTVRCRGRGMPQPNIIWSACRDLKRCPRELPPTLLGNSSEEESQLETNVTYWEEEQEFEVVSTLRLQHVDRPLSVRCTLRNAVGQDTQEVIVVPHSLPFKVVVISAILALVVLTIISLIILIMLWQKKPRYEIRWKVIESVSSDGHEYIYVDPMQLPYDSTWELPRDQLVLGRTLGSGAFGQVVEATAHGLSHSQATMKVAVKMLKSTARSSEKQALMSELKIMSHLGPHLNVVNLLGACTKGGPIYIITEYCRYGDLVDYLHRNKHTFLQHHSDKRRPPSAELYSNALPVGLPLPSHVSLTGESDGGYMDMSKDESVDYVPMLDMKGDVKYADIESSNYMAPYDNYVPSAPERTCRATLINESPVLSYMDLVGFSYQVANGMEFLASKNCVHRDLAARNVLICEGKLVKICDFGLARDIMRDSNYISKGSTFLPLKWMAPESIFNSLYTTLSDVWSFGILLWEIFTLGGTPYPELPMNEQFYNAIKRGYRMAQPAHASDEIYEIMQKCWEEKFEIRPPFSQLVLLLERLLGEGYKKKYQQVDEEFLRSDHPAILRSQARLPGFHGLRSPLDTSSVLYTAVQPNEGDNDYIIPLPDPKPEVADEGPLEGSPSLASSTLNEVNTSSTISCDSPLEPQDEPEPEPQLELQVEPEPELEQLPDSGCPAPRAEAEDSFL
Sequence of PDGFR (Homo sapiens, UniProt P09619) (P09619 33-1106): as above

Consider `CC(O)=C(C#N)C(=O)Nc1ccc(C(F)(F)F)cc1` [A77 1726], for which, in series [1], the “Platelet-derived growth factor-dependent tyrosine phosphorylation” value is “inhibited by A77 1726 in intact cells at concentrations similar to EGF-dependent phosphorylation”. In addition, the “growth of A431 cells” value in the series with A431 cells is given as “inhibited growth of A431 cells”.
Regarding `O=C(NN=Cc1ccc(O)c(O)c1)C(=O)Nc1cccc([N+](=O)[O-])c1` [Compound E15], in the series on U1242 cells [2], the CC50 is over 100 µM. The IC50 with C6 cells was 4.4 µM; at PDGF-R (U1242) (setting [7]), 5 µM and 10 µM; at PDGF-R (U1242) (read-out: U1242 KINASE IC50), over 50 µM; at PDGFR [4] it was 5 µM. In addition, the mortality at 336 h in [3] (15 mg/kg) came out at 0%. In series [3] (50 mg/kg), this compound returned a mortality at 360 h of 12.5%. In addition, the mortality at 192 h in series [3] (100 mg/kg) amounted to 100%. Also, the inhibition in vivo at 15 mg/kg with C6 glioma cells (Rattus norvegicus, C6 glioma, sc, at 15 mg/kg, read-out: C6 in vivo EFFICACY) was 66%. In addition, the inhibition in vivo at 50 mg/kg in the series on C6 glioma cells (Rattus norvegicus, C6 glioma, sc, at 50 mg/kg, read-out: C6 in vivo EFFICACY) worked out at 58%. Besides, in the series on C6 glioma cells (Rattus norvegicus, C6 glioma, sc, at 100 mg/kg, read-out: C6 in vivo EFFICACY), the inhibition in vivo at 100 mg/kg amounted to 0%. The compound further came in with an LD10 in “LD10” of over 400 mg/kg.
Turning to `COc1cc2nc(Cl)c(-c3ccccc3)cc2c(OC)c1OC` [Compound G11], in the series with U1242 cells [5], the CC50 was 90 µM. Further, the IC50 with PDGFR [6] was 20 µM; at PDGFR [4], 15 µM.
Turning to `O=C(c1ccccc1)c1ccc2ncc(-c3ccccc3)nc2c1` [Compound G21], the CC50 with U1242 cells [5] was over 100 µM. Further, the IC50 with C6 cells is over 12 µM; on PDGF-R (U1242) (setting [7]), 6 µM; at PDGF-R (U1242) (read-out: U1242 KINASE IC50), over 50 µM; on PDGFR [4], 6 µM. Moreover, the mortality in series [3] (40 mg/kg) stood at 0%. In the series with C6 glioma cells (at 40 mg/kg), the “C6 in vivo EFFICACY” value is “no effect”. For the same compound, in the series “LD10”, the LD10 is over 200 mg/kg.
For the compound `Cc1ccc(C(=O)Nc2ccc(S(=O)(=O)O)c3cc(S(=O)(=O)O)cc(S(=O)(=O)O)c23)cc1NC(=O)c1cccc(NC(=O)Nc2cccc(C(=O)Nc3cc(C(=O)Nc4ccc(S(=O)(=O)O)c5cc(S(=O)(=O)O)cc(S(=O)(=O)O)c45)ccc3C)c2)c1` [suramin], the receptor binding entry in the series on PDGF receptor is recorded as “interfere with receptor binding”.
In the case of neomycin, the “binding of PDGF-BB to the α-receptor” value in the series with PDGF α-receptor is listed as “inhibited the binding of PDGF-BB to the α-receptor”. Also, the “binding of PDGF-BB to the β-receptor” value with PDGF β-receptor is reported as “did not inhibit binding to the β-receptor”.
